{
  "source": "patent US20200147028A1",
  "about": "“TREATMENT OF RESPIRATORY INFECTION WITH A TLR2 AGONIST” (Ena Therapeutics Pty Ltd, priority 2017, published 2020)",
  "key": {"TLR-2": {"biological_target": "TLR-2 (Homo sapiens, UniProt O60603)", "sequence (O60603 21-784)": "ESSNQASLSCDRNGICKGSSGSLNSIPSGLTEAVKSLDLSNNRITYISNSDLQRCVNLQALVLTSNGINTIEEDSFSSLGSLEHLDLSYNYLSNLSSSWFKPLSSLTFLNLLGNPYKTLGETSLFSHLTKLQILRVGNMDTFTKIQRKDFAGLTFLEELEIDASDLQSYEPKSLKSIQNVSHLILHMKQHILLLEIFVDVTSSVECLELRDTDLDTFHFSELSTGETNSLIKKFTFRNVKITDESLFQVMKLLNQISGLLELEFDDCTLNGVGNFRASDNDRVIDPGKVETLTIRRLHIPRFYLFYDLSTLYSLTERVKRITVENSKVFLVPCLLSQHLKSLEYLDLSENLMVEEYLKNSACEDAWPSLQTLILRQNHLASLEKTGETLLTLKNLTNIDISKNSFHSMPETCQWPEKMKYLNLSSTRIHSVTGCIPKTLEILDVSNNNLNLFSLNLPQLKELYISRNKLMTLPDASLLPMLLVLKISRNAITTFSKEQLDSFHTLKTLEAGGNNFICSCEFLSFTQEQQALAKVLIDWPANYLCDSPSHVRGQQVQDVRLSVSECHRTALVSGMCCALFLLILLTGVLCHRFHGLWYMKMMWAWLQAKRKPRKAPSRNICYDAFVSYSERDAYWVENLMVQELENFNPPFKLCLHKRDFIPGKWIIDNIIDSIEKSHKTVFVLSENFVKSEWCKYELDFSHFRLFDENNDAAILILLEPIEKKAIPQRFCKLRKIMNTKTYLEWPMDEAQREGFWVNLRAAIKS", "sequence (Q15399 25-786 partner)": "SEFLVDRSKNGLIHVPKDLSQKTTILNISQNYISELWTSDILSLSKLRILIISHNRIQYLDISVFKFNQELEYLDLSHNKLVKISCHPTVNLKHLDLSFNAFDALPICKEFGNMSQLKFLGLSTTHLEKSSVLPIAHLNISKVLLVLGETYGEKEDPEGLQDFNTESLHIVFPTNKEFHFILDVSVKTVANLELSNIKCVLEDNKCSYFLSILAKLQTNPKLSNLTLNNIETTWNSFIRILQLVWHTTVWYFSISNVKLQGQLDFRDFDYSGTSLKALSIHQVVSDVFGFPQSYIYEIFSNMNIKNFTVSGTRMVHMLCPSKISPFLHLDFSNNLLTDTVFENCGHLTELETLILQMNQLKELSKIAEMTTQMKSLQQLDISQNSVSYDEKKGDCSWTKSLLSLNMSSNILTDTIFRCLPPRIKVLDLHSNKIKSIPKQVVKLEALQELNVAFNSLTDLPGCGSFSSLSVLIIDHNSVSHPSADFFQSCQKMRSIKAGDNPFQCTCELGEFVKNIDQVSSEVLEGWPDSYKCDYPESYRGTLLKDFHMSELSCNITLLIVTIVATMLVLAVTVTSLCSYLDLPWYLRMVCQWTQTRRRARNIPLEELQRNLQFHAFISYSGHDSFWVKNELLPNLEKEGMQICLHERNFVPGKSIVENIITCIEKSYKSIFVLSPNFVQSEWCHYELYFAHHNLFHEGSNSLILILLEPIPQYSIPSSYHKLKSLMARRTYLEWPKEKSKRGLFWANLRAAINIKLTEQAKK", "assay": "NF-κB luciferase reporter in HEK293T cells transfected with human TLR2", "assay_type": "cell-based", "design": "expressed in transfected cells; host or cells: HEK293T", "conditions": "dose range 12.2 pM to 3.125 pM, FIG. 20", "procedure": "Comparison of the abilities of various compounds to stimulate luciferase activity in an NF-κB cell-based reporter system was determined. Compounds tested include INNA-006 (or compound (1)); INNA-013 (or compound (4)); INNA-014 (or compound (3)); INNA-015 (or compound (2)); INNA-010; INNA-011 (or compound (5)); INNA-012 (or compound (6)); and INNA-009. HEK293T cells, transiently co-transfected with a human TLR2 plasmid and a luciferase-NF-κB plasmid reporter system, were exposed to various dilutions of each compound. Successful receptor binding and subsequent signal transduction events were determined by measuring the luminescence due to luciferase activity (results shown in FIG. 19—left to right columns for each concentration are in the following order INNA-006 (or compound (1)); INNA-013 (or compound (4)); INNA-014 (or compound (3)); INNA-015 (or compound (2)); INNA-010; INNA-011 (or compound (5)); INNA-012 (or compound (6)); and INNA-009.\nComparison of the in vitro TLR2 agonistic activity of Pam3Cys-Ser-PEG3000 and INNA-006: HEK293T cells, transiently co-transfected with a human TLR2 plasmid and a luciferase-NF-κB plasmid reporter system, were exposed to various dilutions of INNA-006 or Pam3Cys-Ser-PEG3000.\nSuccessful receptor binding and subsequent signal transduction events were determined by measuring the luminescence due to luciferase activity (FIG. 20)."}, "[1]": {"tested_on": "Rhinovirus serotype 1B (RV1B)", "assay": "Mouse RV1B infection model: lung viral RNA by qPCR", "conditions": "for reduction of RV infection (lung RV copy number): Study 1E: 10 pmol day −7; for RV copy number in lung: Study 1E: every dose 1-10 pmol day −7; for lung viral load: day +1"}, "CXCL1": {"tested_on": "CXCL1", "assay": "Mouse RV1B infection model: CXCL1 in BAL by ELISA", "description": "(§1) Remaining lung lobes we snap frozen in liquid nitrogen, homogenised in 600 μl PBS containing protease inhibitors (Roche) by TissueLyser II run twice at 30 Hz for 4 minutes. Cell debris was pelleted by centrifugation, samples were diluted 1:2 with PBS and stored at −80° C. BAL fluid was then analysed for production of KC/IL-8 (CXCL1) and TNF-α by Duoset ELISA (R&D Systems) as per manufacturer's instructions."}, "TNFα": {"tested_on": "TNFα", "assay": "Mouse RV1B infection model: TNFα in BAL by ELISA", "description": "as §1"}, "TNF-α": {"tested_on": "TNF-α", "assay": "Mouse RV1B infection with fluticasone propionate: TNF-α in BAL by ELISA", "assay_type": "in vivo, BALB/c mice", "conditions": "FP treatment"}, "[2]": {"assay_type": "in vivo, BALB/c mice", "conditions": "2 pmol INNA-006 day −7 or day −7 & −1; FP 1 hour before RV1B", "text": "Each group contained 8 mice."}, "[3]": {"tested_on": "Rhinovirus serotype 1B (RV1B)", "assay": "Mouse RV1B infection with fluticasone propionate: lung viral RNA by qPCR", "conditions": "FP 1 hour before RV1B in Saline control mice"}, "[4]": {"design": "species or system BALB/c mice", "conditions": "mouse, in vivo", "text": "Each group contained 5 mice."}, "BAL inflammatory cells": {"tested_on": "BAL inflammatory cells", "assay": "Mouse RV1B infection model: BAL cell analysis", "description": "Following sacrifice, mice were tracheally cannulated and 1 ml of Hanks buffered saline solution (Hyclone™, GE Life Sciences) flushed through the airways, 3-5 times. BAL cells were pelleted by centrifugation and supernatant was collected and stored at −80° C. for ELISAs. The pelleted cells were red blood cells lysed and the remaining cells were counted on a heamocytometer by trypan blue exclusion. Cell suspensions were then cytocentrifuged onto slides and fixed and stained with Diff Quick (POCD) solutions as per manufacturer's recommendations. A minimum of 200 total cells were counted per slide and numbers of neutrophils, lymphocytes, and macrophages were determined."}, "[5]": {"conditions": "Study 1G: lowest doses (2 pmole and 1 pmole) day +1, listed as Peg-SS-Pam2Cys"}},
  "note": "Entries after “also recorded” stand apart in the source; their conditions may differ. Where two headings read alike, the source gives them in different places. No end group written: not given here.",
  "data": [
    {"compound": "Pam3Cys-Ser-PEG3000", "values": [
      {"measurement": "ability to signal NF-κB (luciferase), versus INNA-006", "setting": "TLR-2", "value": "inferior to INNA-006"}
    ]},
    {"compound": "Pam2Cys-Ser-Lys-Lys-Lys-Lys (C(dipalmitoyl‑S‑glyceryl)SKKKK) [INNA-005, reference compound]", "values": [
      {"measurement": "reduction in lung viral load", "setting": "[1]; Study 1E, day −7 (discussion)", "value": 50, "unit": "%"},
      {"measurement": "reduction of RV infection (lung RV copy number)", "setting": "[1]", "value": 58, "unit": "%"},
      {"measurement": "RV copy number in lung", "setting": "[1]; day 2 p.i.", "value": "significant reduction in RV infection"},
      {"measurement": "CXCL1 in BAL", "setting": "CXCL1; Study 1E: 10 pmol and 5 pmol dose day −7", "value": "effectively reduced CXCL1 levels"},
      {"measurement": "TNF-α in BAL", "setting": "TNFα; Study 1E: day −7", "value": "not increased by any of the compounds"}
    ]},
    {"compound": "CCC(=O)O[C@]1(C(=O)SCF)[C@H](C)C[C@H]2[C@@H]3C[C@H](F)C4=CC(=O)C=C[C@]4(C)[C@@]3(F)[C@@H](O)C[C@@]21C", "note": "[FP, fluticasone propionate, reference compound]", "values": [
      {"measurement": "TNF-α production stimulated by INNA-006", "setting": "TNF-α", "value": "reduced TNF-α production stimulated by INNA-006"},
      {"measurement": "weight loss", "setting": "[2]", "value": "no significant weight loss"},
      {"measurement": "viral lung load", "setting": "[3]", "value": "Viral lung load was increased; also recorded: increased viral lung load in Saline control mice only"}
    ]},
    {"compound": "Pam2Cys-SS-PEG [INNA-003]", "values": [
      {"measurement": "reduction of RV infection (lung RV copy number)", "setting": "[1]", "value": 84.82, "unit": "%"},
      {"measurement": "anti-viral efficacy relative to Pam2CysSK4", "setting": "[1]; Study 1E: 10 pmol dose day −7, listed as Peg-SS-Pam2Cys", "value": "better anti-viral efficacy compared to Pam2CysSK4"},
      {"measurement": "RV copy number in lung", "setting": "[1]; day 2 p.i.", "value": "significant reduction in RV infection"},
      {"measurement": "reduced viral RNA", "setting": "[1]; Study 1F: single treatment at day −7", "value": 70, "unit": "%"},
      {"measurement": "reduction in viral RNA", "setting": "[1]; Study 1F: treatment at both days −7 and −1", "value": "approx. 90%"},
      {"measurement": "RV copy numbers in lung", "setting": "[1]; Study 1G: 10, 5, 2, 1 pmol 1 day post-infection, day 2 p.i.", "value": "reduces RV1B copy numbers in the lung"},
      {"measurement": "lung viral load", "setting": "[1]; Study 1G: doses 5 pmole per mouse and lower", "value": "significant reduction in lung viral load"},
      {"measurement": "lung viral load", "setting": "[1]; Study 1G: highest dose 10 pmole per mouse", "value": "less effective"},
      {"measurement": "weight loss", "setting": "[4]", "value": "weight loss at the higher doses"},
      {"measurement": "weight loss after second dose", "setting": "[4]", "value": "no weight loss observed"},
      {"measurement": "RV-induced BAL neutrophilic inflammation", "setting": "BAL inflammatory cells; Study 1E: day −7, day 2 p.i.", "value": "significantly reduced neutrophilic inflammation"},
      {"measurement": "inflammatory potency, Peg-SS-Pam2Cys versus Peg-S-Pam2Cys", "setting": "BAL inflammatory cells; Study 1F", "value": "Peg-SS-Pam2Cys more inflammatory"},
      {"measurement": "BAL neutrophils", "setting": "BAL inflammatory cells; Study 1F: 2 pmol, 1 day prior to RV or mock infection", "value": "only significantly increased in mice with Peg-SS-Pam2Cys treatment 1 day prior to RV or mock infection"},
      {"measurement": "BAL lymphocytes", "setting": "BAL inflammatory cells; Study 1F: 2 pmol, day −7, day −1 or both", "value": "induced by Peg-SS-Pam2Cys at all treatment times (except day −7 treatment with RV1B infection)"},
      {"measurement": "total BAL leukocytes in RV1B infected mice", "setting": "BAL inflammatory cells; Study 1F: 2 pmol, vs Saline RV", "value": "did not induce significantly higher leukocyte recruitment"},
      {"measurement": "total BAL leukocytes in mock infected mice", "setting": "BAL inflammatory cells; Study 1F: 2 pmol, vs Saline mock", "value": "Total leukocytes were increased"},
      {"measurement": "neutrophilic response in uninfected mice", "setting": "BAL inflammatory cells; Study 1F: three days after dosing (d-1 groups)", "value": "there was a neutrophilic response to Peg-SS-Pam2Cys"},
      {"measurement": "BAL lymphocytes", "setting": "BAL inflammatory cells; Study 1G: day +1 treatment", "value": "no changes to lymphocyte numbers"},
      {"measurement": "BAL macrophages", "setting": "BAL inflammatory cells; Study 1G: day +1 treatment", "value": "significantly reducing macrophage numbers"},
      {"measurement": "total BAL leucocyte numbers", "setting": "BAL inflammatory cells; Study 1G: day +1 treatment", "value": "no significant differences"},
      {"measurement": "BAL neutrophils", "setting": "BAL inflammatory cells; Study 1G: day +1 treatment, listed as Peg-SS-Pam2Cys", "value": "drastically increases neutrophil numbers in BAL; also recorded: increasing neutrophil recruitment"},
      {"measurement": "CXCL1 in BAL", "setting": "CXCL1; Study 1E: every dose (1-10 pmol) day −7", "value": "effectively reduced CXCL1 levels"},
      {"measurement": "CXCL1 in BAL", "setting": "CXCL1; Study 1F: 2 pmol day −1, RV1B, listed as Peg-SS-Pam2Cys", "value": "CXCL1 production was only increased; also recorded: significantly increased in mice treated one day prior to infection"},
      {"measurement": "CXCL1 / lung inflammation after day −1 dose with prior day −7 dose", "setting": "CXCL1; Study 1F: 2 pmol day −7 and day −1, listed as Peg-SS-Pam2Cys", "value": "protected from lung inflammation; also recorded: completely abolished"},
      {"measurement": "CXCL1 in BAL", "setting": "CXCL1; Study 1G: 10-1 pmol day +1", "value": "dose dependent upon drug treatment"},
      {"measurement": "CXCL1 (KC) in BAL", "setting": "CXCL1; [5]", "value": "not increased by the lowest doses; also recorded: no significant increase in KC or TNFα"},
      {"measurement": "TNF-α in BAL", "setting": "TNFα; Study 1E: day −7, listed as Peg-SS-Pam2Cys", "value": "not increased by any of the compounds; also recorded: lack of induction of TNFα"},
      {"measurement": "TNF-α in BAL", "setting": "TNFα; Study 1F: 2 pmol, all groups", "value": "did not induce TNF-α in any of the groups"},
      {"measurement": "TNF-α in BAL", "setting": "TNFα; Study 1G: 10-1 pmol day +1", "value": "dose dependent upon drug treatment"},
      {"measurement": "TNF-α in BAL", "setting": "TNFα; [5]", "value": "not increased by the lowest doses; also recorded: no significant increase in KC or TNFα"}
    ]}
  ]
}
